{
  "source": "the METLIN SMRT retention time set (Domingo-Almenara et al. 2019)",
  "data": [
    {"assay": "gradient 5% acetonitrile 3 min, to 50% in 2 min, to 85% in 15 min, held 3 min, 100 µL/min", "conditions": "column: Zorbax Extend-C18 2.1 x 50 mm; eluents: water / acetonitrile, 0.1% formic acid", "in_short": "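The mobile phases were water and acetonitrile, each with 0.1% formic acid, pumped at 100 μL/min through a Zorbax Extend-C18 column (2.1 × 50 mm, 1.8 μm). Pure standards were injected as mixtures of ~100 molecules and detected by a quadrupole time-of-flight mass spectrometer in positive and negative ionization mode. Retention time came from computationally picked adduct peaks, each inspected by hand.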", "units": {"RP-LC retention time": "s"}, "values": [
      {"molecule": "COc1ccc(-c2nc3cnccn3c2Nc2ccc(F)cc2)cc1OC", "RP-LC retention time": 768},
      {"molecule": "O=C(NCc1ccccn1)C1CCCN(C(=O)NCc2cccs2)C1", "note": "(centres undefined)", "RP-LC retention time": 550},
      {"molecule": "CCN(CC)c1ncc2c(n1)CCC(C(=O)Nc1ccc(C(=O)OC)cc1)C2", "note": "(centres undefined)", "RP-LC retention time": 736},
      {"molecule": "CCc1nc(-c2ccc(OC3CCN(C(=O)c4sc(C)nc4C)C3)cc2)no1", "note": "(centres undefined)", "RP-LC retention time": 696},
      {"molecule": "Cc1cc(C)n(-c2ccnc(N3CCC(C(=O)NCC(C)C)CC3)n2)n1", "RP-LC retention time": 768},
      {"molecule": "CCOc1ccc(NC(=O)N(C)CC2CCOCC2)cc1", "RP-LC retention time": 719},
      {"molecule": "O=S(=O)(Cc1ccccc1)N1CCC(c2noc(-c3ccncc3)n2)C1", "note": "(centres undefined)", "RP-LC retention time": 812},
      {"molecule": "Oc1ccc(Cl)cc1C1CC(c2ccc(Cl)cc2)=NC2(CCN(Cc3ccccc3)CC2)N1", "note": "(centres undefined)", "RP-LC retention time": 791},
      {"molecule": "CCN1CCN(CC2=C(C(=O)OC)C(c3ccccc3C)NC(=O)N2)CC1", "note": "(centres undefined)", "RP-LC retention time": 615},
      {"molecule": "Cn1ccc2c(cc(C(=O)NCc3cccc(C(F)(F)F)c3)n2C)c1=O", "RP-LC retention time": 771},
      {"molecule": "O=S(=O)(c1cccs1)N1CCC(n2cnnc2-c2ccccc2)CC1", "RP-LC retention time": 744},
      {"molecule": "O=C(c1ccn2c(-c3cccc(Cl)c3)nnc2c1)N1CCN(c2ccccn2)CC1", "RP-LC retention time": 608},
      {"molecule": "Clc1ccccc1-c1noc(Cc2nc(-c3ccccc3)cs2)n1", "RP-LC retention time": 1180},
      {"molecule": "CCn1nccc1-c1cccc(-c2noc(-c3cc(OC)cc(OC)c3)n2)c1", "RP-LC retention time": 1240},
      {"molecule": "Cc1nc(-c2cccs2)c(CC(=O)N2CCN(c3ccccn3)CC2)s1", "RP-LC retention time": 607},
      {"molecule": "CCOC(=O)C1CCc2sc(NC(=O)CCc3csc4nc(C5CC5)cn34)nc21", "note": "(centres undefined)", "RP-LC retention time": 599},
      {"molecule": "O=C(Cn1cnc2ccccc21)N1CCN(C(=O)C2CC2c2cccs2)CC1", "note": "(centres undefined)", "RP-LC retention time": 592},
      {"molecule": "COc1cccc(-c2ccc3nc(N4CCC(C(=O)NCCN(C)C)CC4)sc3n2)c1", "RP-LC retention time": 669},
      {"molecule": "O=C(NCC1(c2nc(-c3ccccc3)cs2)CCOCC1)c1cccc(-c2noc(C(F)(F)F)n2)c1", "RP-LC retention time": 1310},
      {"molecule": "Cc1ccccc1N1CCN(Cc2nc(-c3ccc(N4CCSCC4)nc3)no2)CC1", "RP-LC retention time": 801},
      {"molecule": "COc1cccc(CNC(=O)Cn2c(=O)c(CCC(=O)NCC(C)C)nc3ccccc32)c1OC", "RP-LC retention time": 757},
      {"molecule": "Cc1ccc2c(c1)OCC(=O)N2Cc1nc(-c2ccc(Cl)c(F)c2)no1", "RP-LC retention time": 1190},
      {"molecule": "COc1ccc(CC(=O)N2CCN(c3cc(C)n4cnnc4n3)CC2)cc1Cl", "RP-LC retention time": 611},
      {"molecule": "CCN1c2cc(F)ccc2C(=O)NC12CCN(C(=O)c1ccc(F)cc1)CC2", "RP-LC retention time": 714},
      {"molecule": "CN(C)S(=O)(=O)c1ccc(-c2nnc(C(=O)NCc3ccc(C(F)(F)F)cc3)o2)cc1", "RP-LC retention time": 940},
      {"molecule": "Cc1nn(C)c2c(=O)n(C(C)C(=O)NCc3ccc4c(c3)OCO4)ccc12", "note": "(centres undefined)", "RP-LC retention time": 715},
      {"molecule": "Cc1ccc(C)c(N2CCN(c3ccnc(SCC(=O)Nc4ccccc4F)n3)CC2)c1", "RP-LC retention time": 1010},
      {"molecule": "O=C(CCS(=O)(=O)c1ccc(Cl)cc1)Nc1nnc(Cc2ccc3c(c2)OCO3)o1", "RP-LC retention time": 726},
      {"molecule": "O=C(C1CCCCC1)N1CCCN(c2ncccc2-c2nc(C3CC3)no2)CC1", "RP-LC retention time": 1010},
      {"molecule": "O=S(=O)(c1cc(-c2noc(C3CCCC3)n2)cs1)N1CCCCC1", "RP-LC retention time": 1240},
      {"molecule": "Cc1ccc(C)c(N2CCN(C(=O)C3CCN(S(=O)(=O)c4cn(C)c(C)n4)CC3)CC2)c1", "RP-LC retention time": 822},
      {"molecule": "COc1ccc(NC(C)=O)cc1NC(=O)C1CC(=O)N(c2n[nH]c3cccc(F)c23)C1", "note": "(centres undefined)", "RP-LC retention time": 634},
      {"molecule": "O=c1c(=O)n(Cc2nc(-c3ccc4c(c3)OCO4)no2)ccn1Cc1ccc(Cl)cc1", "RP-LC retention time": 879},
      {"molecule": "O=C(COc1ccccc1)N1CCCCC1CCN1CCCCC1", "note": "(centres undefined)", "RP-LC retention time": 635},
      {"molecule": "O=C(NCCc1ccco1)c1cc2n(n1)CCCN(Cc1cccc(F)c1)C2=O", "RP-LC retention time": 751},
      {"molecule": "CC1=C(CO)C(=O)O[C@@H]([C@@H](C)[C@H]2CCC3[C@@H]4C[C@H]5O[C@]56[C@@H](O)C=CC(=O)[C@]6(C)C4CC[C@@]32C)C1", "note": "(some centres undefined)", "RP-LC retention time": 759},
      {"molecule": "COCC(=O)Nc1cnc(-c2cccc(Cl)c2)nc1", "RP-LC retention time": 872},
      {"molecule": "CCOC(=O)c1nc(N(CC)c2ccccc2)c2ccccc2n1", "RP-LC retention time": 769},
      {"molecule": "COc1cc(C2=NN(C(C)=O)C(c3cccnc3)O2)cc(OC)c1OC", "note": "(centres undefined)", "RP-LC retention time": 701},
      {"molecule": "Cc1ccccc1Cn1cc(-c2ccncc2)cc1C(=O)NC1CC1", "RP-LC retention time": 648},
      {"molecule": "CCS(=O)(=O)N1CCCC(Cn2cc(COc3ccc4c(c3)CCC4)nn2)C1", "note": "(centres undefined)", "RP-LC retention time": 963},
      {"molecule": "O=C(Nc1ccc(N2CCOCC2)cc1)C1(CCO)CCN(c2ncccn2)C1", "note": "(centres undefined)", "RP-LC retention time": 549},
      {"molecule": "O=C(NCc1csc(-c2cccs2)n1)C1CCN(C(=O)c2ccc(F)c(F)c2)CC1", "RP-LC retention time": 770},
      {"molecule": "O=C(NC1CC1)c1c2c(nc3ccc(F)cc13)CCCC2", "RP-LC retention time": 610}
    ]}
  ]
}
